Test results as given in patent US8980575B2, “Process to avoid inhibition of acetogens by CO” (Ineos Bio SA, priority 2012, dated 2015).

How the values were obtained:
[1] = Dissolved CO by Henry's law calculation; type: physicochemical; details: feeding a gas containing 9.5% CO, 37 to 38° C.
Protocol: In order to calculate dissolved CO, the mass transfer coefficient (KLa) of the system needs to be determined. KLa value will depend on various factors, such as architecture of the reactor, superficial gas flow rate, un-aroused volume, temperature and agitation power. Therefore KLa values vary from reactor conditions to condition.
Henry's law:P=KHC • Henry's constant=KH=p/c (L(psi)/mol) • at 38° C., KH=17640 (L(psi)/mol)
In a CSTR containing CO consuming bacteria, the following equation may be used to estimate dissolved CO. • KLa((PCO(head space)/KH)−(PCO(liquid)/KH))=COU • COU=carbon monoxide uptake (mol/L/min) • KLa=mass transfer coefficient (min^−1) • (PCO(liquid)/KH)=dissolved CO (mol/L)
When dissolved CO=0 • KLa=COU/(PCO(head space)/KH) • KLa((PCO(head space)/KH)−(PCO(liquid)/KH))=COU • KH=L(psi)/mol

Clostridium ljungdahlii [2] = assay: Fermentation with low CO feed-gas (Example 3); type: cell-based; details: 9.5% CO/90.5% N2 feed gas, 534 ml/min; inoculum 0.38 g/l; within 90.6 hours after inoculation
Protocol: (§1) New Brunswick and CelliGen 310 reactor containing modified 1× ethanol medium were inoculated with 0.38 g/l of actively growing (in syngas) Clostridium ljungdahlii. Before inoculation, the rate of agitation of the reactor was set to 800 rpm. Gas and liquid samples taken from the reactor at every 1 to 4 hour intervals were analyzed for consumption or production of various gas components, broth acetic acid concentration, broth ethanol concentration and the optical density of the culture. Also the composition of the feed-gas was measured daily and the flow to the reactor was measured in real time by the mass flow controller regulating feed-gas to the reactor.
(§2) A CO composition feed gas of 9.5% CO/90.5% N2 was utilized and the flow was set to 534 ml/min. All through out the experiment the rate of feed gas to the reactor was not adjusted.
The method was utilized to keep the dissolved CO in the culture broth below 0.12 mmol/L at around 37 to 38° C. According to the Henry's Law, the maximum dissolved CO concentration that can be obtained by feeding a gas containing 9.5% is 0.079 mmol.
(§3) A Shimadzu GC-2014 gas chromatograph was used to measure the broth ethanol and acetic acid concentrations. SRI 8610c gas chromatograph was used to measure the components of the feed-gas.

Clostridium ljungdahlii [3] = assay: Effect of CO concentration on growth, bioreactor runs (Example 7); type: cell-based; details: for bacterial cell density over time: inoculum 3.8 g/L
Protocol: Clostridium ljungdahlii was grown in a bioreactor (New Brunswick BioFlo I or IIc). The following adjustments were made:
Conductivity of the culture was adjusted by adjusting the strength of the growth medium, for example concentration of all the components, except vitamin in the growth medium was increased by 1.5 times to increase the conductivity of the culture from approximately 7 mS to approximately 9.5 mS. […]
Initial gas flow rate of each experiment was kept unchanged throughout the experiment. Reactor parameters, when CO conversion values reach a plateau after a successful start-up, were used to calculate KLa for relevant conditions.
Syngas composition was 30% CO, 15% H2, 10% CO2 and 45% N2.

Clostridium ljungdahlii [4] = assay: Inhibitory CO feed rates, four stage protocol (Example 6); type: cell-based; details: for CRT Average (cell retention time): from 18 hours after beginning to end of stage
Protocol: Clostridium ljungdahlii was grown in a bioreactor (New Brunswick BioFlo I or IIc).
To achieve a conductivity of 9 mS/cm, a medium was made using 1.5× of all components except for vitamins. A four stage protocol was used as follows:
Stage 1: A culture was grown up in a 2 L bioreactor using syngas. With a cell density of 2.9 g/L, the gas source was switched from syngas mixture to a CO/N2 mixture containing 95% CO and 5% N2.
Stage 2: At T=26 hrs, a CO conversion target was set at >90%.
Stage 3: At T=70 hrs, the CO conversion target was decreased from 90% to 85%.
Stage 4: At T=97 hrs, the CO conversion target was decreased from 85% to 80%.
Dissolved CO was calculated for each gas sample using representative KLa values for a particular gas flow rate. These values were then averaged to find a representative value for each stage. Pictures were taken throughout the experiment in order to qualitatively study the morphology change over time.
Average cell retention time (CRT) was calculated for the period of 18 hours after the beginning of each stage to the end of each stage.

[5] = at 38° C.; cited from earlier work
Clostridium ljungdahlii [6] = assay: Effect of CO feed rates on CO conversion (Example 5); type: cell-based
Protocol: Clostridium ljungdahlii was grown and maintained using only CO and N2 (feed gas) in a bioreactor (New Brunswick BioFlo I or IIc). During the experiment, rate of feed gas was altered to obtain desired culture conversions. Lower culture conversions were employed to provide excess dissolved CO to Clostridium ljungdahlii.
Low culture conversions of CO was used as s method to provide excess dissolved CO to the culture. For example, when a culture in a reactor can convert X amount of CO at a given agitation and at a given flow rate, the dissolved CO can be increased by increasing the flow rate so that culture conversions go below X.

[7] = test system: Butyribacterium methylotrophicum; assay: Fermentation with low CO feed-gas (Example 4); type: cell-based; details: 9.5% CO/90.5% N2 feed gas, 534 ml/min; inoculum 0.86 g/l; within 44.4 hours after inoculation
Protocol: as §1, with “medium was” for “medium were”, “with 0.86” for “with 0.38”, “(in 5% CO/95% N2) Butyribacterium methylotrophicum. At the start of the experiment” for “(in syngas) Clostridium ljungdahlii. Before inoculation,”, “measured” for “measured in”
as §2
This method was utilized to keep the dissolved CO in the culture broth below 0.12 mmol/l at around 37 to 38° C. According to the Henry's law the maximum dissolved CO concentration that can be obtained by feeding a gas containing 9.5% is 0.079 mmol.
as §3

Clostridium ljungdahlii [8] = assay: Fermentation with high CO feed-gas, head-space CO partial pressure control (Example 1); type: cell-based; details: 95% CO/5% N2 feed gas, head-space CO controlled; inoculum 1.28 g/l; within 41.4 hours after inoculation
Protocol: as §1, with “310 bioreactors” for “310 reactor”, “with 1.28” for “with 0.38”, “measured” for “measured in”, “reactor. High CO composition feed gas of 95% CO/5% N2 was utilized.” for “reactor.”
The following method was used to regulate rate of gas supply to the reactor: X=(head space CO %/100)×(measured reactor pressure(psig)+atmospheric pressure/atmospheric pressure(14.7))
if x is 0.08 or below gas flow to the reactor was increased by 7.6% of the current mole value of gas flow rate to the reactor
if X is 0.12 or higher gas flow to the reactor was decreased by 7.6% of the current mole value of gas flow rate to the reactor
as §3

[9] = test system: Butyribacterium methylotrophicum; assay: Fermentation with high CO feed-gas, head-space CO partial pressure control (Example 2); type: cell-based; details: 95% CO/5% N2 feed gas, head-space CO controlled; inoculum 0.92 g/l; within 68 hours after inoculation
Protocol: as §1, with “0.92” for “0.38”, “Butyribacterium methylotrophicum.” for “Clostridium ljungdahlii.”, “measured” for “measured in”, “reactor. High CO composition feed gas of 95% CO/5% N2 was utilized.” for “reactor.”
The method described in Example 1 was used to regulate the rate of gas supply to the reactor.
as §3

[10] = Run #2: 1× growth medium, 35 ml/min syngas
[11] = Run #3: 1× growth medium, 40 ml/min syngas
[12] = Run #4: 1× growth medium, 45 ml/min syngas
[13] = Run #10: 1.5× growth medium, 20 ml/min syngas
[14] = Stage 2, average dissolved CO 0.04 mmol
[15] = Stage 3, average dissolved CO 0.12 mmol
[16] = Stage 4, average dissolved CO 0.29 mmol

SMILES: [C-]#[O+] [CO, carbon monoxide]
- maximum dissolved CO concentration according to Henry's Law [1]: 0.079 mmol
- cell mass (Clostridium ljungdahlii [2]): 6.21 g/L
- doubling time (Clostridium ljungdahlii [3]; Run #1: 1× growth medium, 25 ml/min syngas): about 20 hours
- initial lag period (Clostridium ljungdahlii [3]; Run #1: 1× growth medium, 25 ml/min syngas (30% CO)): about 20 hours
- doubling time (Clostridium ljungdahlii [3]; [10]): about 20 hours
- initial lag period (Clostridium ljungdahlii [3]; [10]): about 36 hours
- cell morphology (Clostridium ljungdahlii [3]; Run #2: 35 ml/min syngas, at about 51 hours after inoculation): elongated and curved
- doubling time (Clostridium ljungdahlii [3]; [11]): about 20 hours
- initial lag period (Clostridium ljungdahlii [3]; [11]): about 45 hours
- cell morphology (Clostridium ljungdahlii [3]; Run #3: 40 ml/min syngas, at about 51 hours after inoculation): elongated and curved
- doubling time (Clostridium ljungdahlii [3]; [12]): about 20 hours
- initial lag period (Clostridium ljungdahlii [3]; [12]): about 50 hours
- cell morphology (Clostridium ljungdahlii [3]; Run #4: 45 ml/min syngas, at about 55 hours after inoculation): elongated and curved
- lag period (culture continued to lag) (Clostridium ljungdahlii [3]; Run #5: 1× growth medium, 50 ml/min syngas): > 70 h
- doubling time (Clostridium ljungdahlii [3]; Run #6: 1× growth medium, 50 ml/min syngas, higher inoculum): about 20 hours
- initial lag period (Clostridium ljungdahlii [3]; Run #6: 1× growth medium, 50 ml/min syngas, higher inoculum (4.8 vs 3.8 g/L cells)): about 10 hours
- cell morphology (Clostridium ljungdahlii [3]; Run #6: 50 ml/min syngas, higher inoculum, at about 20 hours after inoculation): short and consistent in nature
- bacterial cell density over time (Clostridium ljungdahlii [3]; Run #7: 1.5× growth medium, 45 ml/min syngas): went down with time
- bacterial cell density over time (Clostridium ljungdahlii [3]; Run #8: 1.5× growth medium, 35 ml/min syngas): went down with time
- bacterial cell density over time (Clostridium ljungdahlii [3]; Run #9: 1.5× growth medium, 30 ml/min syngas): went down with time
- doubling time (Clostridium ljungdahlii [3]; [13]): 20 h
- bacterial cell density over time (Clostridium ljungdahlii [3]; [13]): went up with time
- SCU Average (specific CO uptake) (Clostridium ljungdahlii [4]; [14]): 0.581 mmol/g/min
- CRT Average (cell retention time) (Clostridium ljungdahlii [4]; [14]): 23.74 h
- SCU Average (specific CO uptake) (Clostridium ljungdahlii [4]; [15]): 0.559 mmol/g/min
- CRT Average (cell retention time) (Clostridium ljungdahlii [4]; [15]): 31.89 h
- SCU Average (specific CO uptake) (Clostridium ljungdahlii [4]; [16]): 0.360 mmol/g/min
- CRT Average (cell retention time) (Clostridium ljungdahlii [4]; [16]): 75.92 h
- dissolved CO at which specific CO uptake proceeded on a downward trend (Clostridium ljungdahlii [4]; Stage 4, conversions coming down to 80%): around 0.2 mmol
- Henry's constant KH [5]: 17640 L(psi)/mol
- ethanol production, cell mass and morphology after recovery (Clostridium ljungdahlii [6]; CO conversions returned to approximately 80%): returned to healthy culture levels
- signs of inhibition (ethanol and acetic acid production, SCU, cell mass, cell morphology) (Clostridium ljungdahlii [6]; at approximately 80% CO conversions): didn't show signs of inhibition
- inhibition of culture (Clostridium ljungdahlii [6]; feed gas increased to maintain CO conversions below approximately 70%): inhibited
- cell mass [7]: 3.32 g/L
- cell mass (Clostridium ljungdahlii [8]): 8.24 g/L
- cell mass [9]: 7.88 g/L
